Numbers after ± are expanded uncertainties.
Details: Liquid, Ebulliometric method (Recirculating still)

Row | Compound | vapor or sublimation pressure (298 K) [kPa] | vapor or sublimation pressure (303 K) [kPa] | vapor or sublimation pressure (308 K) [kPa] | vapor or sublimation pressure (313 K) [kPa] | vapor or sublimation pressure (318 K) [kPa] | vapor or sublimation pressure (323 K) [kPa] | vapor or sublimation pressure (328 K) [kPa] | vapor or sublimation pressure (333 K) [kPa] | vapor or sublimation pressure (338 K) [kPa] | vapor or sublimation pressure (343 K) [kPa] | vapor or sublimation pressure (348 K) [kPa] | vapor or sublimation pressure (353 K) [kPa] | vapor or sublimation pressure (358 K) [kPa] | vapor or sublimation pressure (363 K) [kPa] | vapor or sublimation pressure (366 K) [kPa] | vapor or sublimation pressure (356 K) [kPa] | vapor or sublimation pressure (373 K) [kPa]
1 | CC1COC(C)O1 (centres undefined) [2,4-dimethyl-1,3-dioxolane] | 8.89 ± 4 | 11.17 ± 4 | 13.9 ± 4 | 17.17 ± 4 | 21.04 ± 4 | 25.62 ± 4 | 30.97 ± 4 | 37.21 ± 4 | 44.43 ± 4 | 52.75 ± 4 | 62.29 ± 4 | 73.16 ± 4 | 85.51 ± 4 | 99.46 ± 4 | 99 ± 9.9 |  | 
2 | CC1OCCO1 [2-methyl-1,3-dioxolane] | 11.29 ± 4 | 14.2 ± 4 | 17.72 ± 4 | 21.98 ± 4 | 27.07 ± 4 | 33.15 ± 4 | 40.35 ± 4 | 48.83 ± 4 | 58.78 ± 4 | 70.39 ± 4 | 83.87 ± 4 | 99.46 ± 4 |  |  |  | 99 ± 9.9 | 
3 | O [water] |  |  |  |  |  |  |  |  |  |  |  |  |  |  |  |  | 99 ± 9.9

From the NIST ThermoML archive (doi:10.1021/je025534p)
